Laboratory results published in patent publication US20210270815A1, “SPERM FERTILITY CAPACITY TEST AND SPERM DECAPACITATING SUPPLEMENT” (priority 2018, published 2021).
Residues, ends and D or L forms follow the SMILES beside them. *: point of attachment. Cbz = O=C(OCc1ccccc1)*

Tests used:
[1] = tested on: boar spermatozoa; assay: Zinc signature (FZ3, image-based flow cytometry) of boar spermatozoa after 4 hours of in vitro capacitation (IVC); format: cell-based, Sus scrofa
From the text: Fresh boar spermatozoa were capacitated using a protocol that rendered them capable of recognizing and binding to ZP, as well as undergoing acrosomal exocytosis and penetrating the oocyte ZP^11. IVC-induced protein tyrosine phosphorylation changes are shown in FIG. 3; acrosomal status and plasma membrane changes are shown in FIG. 4A and FIG. 4B. Briefly, spermatozoa were washed of seminal plasma once with noncapacitating media (NCM), a modified TL-HEPES medium, free of calcium dichloride (CaCl2) and addition of 11 mM D-glucose, with pH adjusted to 7.2. Spermatozoa were then resuspended in 0.5 mL in vitro capacitation (IVC) media, TL-HEPES-PVA supplemented with 5 mM sodium pyruvate, 11 mM D-glucose, 2 mM CaCl2, 2 mM sodium bicarbonate, and 2% (m/v) bovine serum albumin, and incubated in a 37° C. water bath for 4 hours, with sperm rotation performed every 60 minutes. Control incubations under non-IVC conditions used NCM. Proteasome inhibitors (100 μM MG-132 and 10 μM Epox/CLBL/MG-132) were mixed with IVC media prior to sperm pellet resuspension. 100 μM M MG-132 and ‘100 μM’ vehicle contained 0.5% (v/v) DMSO. 10 μM Epox/CLBL/MG-132 and ‘10 μM’ vehicle contained 0.3% (v/v) DMSO. PVA (polyvinyl alcohol) helped to reduce sperm aggregation and spermatozoa were pipetted repeatedly to dissociate sperm aggregates in a satisfactory manner prior to IBFC data acquisition. To confirm normal capacitation in the experimental IVC media, compared to 15 mM sodium bicarbonate IVC media, normal hyperactivation status was recorded and tyrosine phosphorylation status was normal (FIG. 3). Unlike murine or rodent sperm tyrosine phosphorylation, porcine tyrosine phosphorylation is much more modest, with less prominent changes during the course of capacitation. Therefore new bands after capacitation appear only at the molar weights of 32 kDa (acrosin binding protein), and 21 kDa protein (phospholipid hydroperoxide glutathione peroxidase). […] Final acrosome and plasma membrane modification status is similar at end of IVC regardless of the two IVC treatment conditions; however, the rate of change and cell death is faster in 15 mM sodium bicarbonate containing medium than experimental IVC medium (FIGS. 4A and 4B).
(§1) Upon 4 hours of IVC, sample size of 100 μL (4 million spermatozoa) were incubated 30 minutes with 1:200 H33342, 1:200 PI, and 1:100 FZ3 for epifluorescence microscopy. Lower probe concentrations were necessary for IBFC due to camera detection differences, thus 1:1000, 1:1000, and 1:500 were used, respectively, with inclusion of 1:1000 PNA-AF647. For Fluo-4 calcium probe, we followed manufacturer protocol using identical cell concentrations.
IBFC data acquisition was performed following previous methodology^56. Specifically, using a FlowSight flow cytometer (FS) fitted with a 20× microscope objective (numerical aperture of 0.9) with an imaging rate up to 2000 events per sec. The sheath fluid was PBS (without Ca^2+ or Mg^2+). The flow-core diameter and speed was 10 μm and 66 mm per sec, respectively. Raw image data were acquired using INSPIRE® software. To produce the highest resolution, the camera setting was at 1.0 μm per pixel of the charged-coupled device. In INSPIRE® FS data acquisition software, two brightfield channels were collected (channels 1 & 9), one FZ3 image (channel 2), one PI image (channel 5), one side scatter (SSC; channel 6), one H33342 (channel 7), and one PNA-AF647 image (channel 11), with a minimum of 10,000 spermatozoa collected. The following lasers and power settings were used: 405 nm (to excite H33342): 10 mW; 488 nm (to excite FZ3): 60 mW; 561 nm (to excite PI): 40 mW, 642 nm (to excite PNA-AF647): 25 mW; and 785 nM SSC laser: 10 mW.
Data were analyzed using IDEAS® analysis software from AMNIS EMD Millipore. Gating approach used standard focus and single cell gating calculations created by IDEAS software (FIG. 2A, left and middle panels). […]

[2] = tested on: boar spermatozoa; assay: TPEN Zn chelation of spermatozoa, FZ3 zinc probe and Fluo-4 calcium probe fluorescence; format: cell-based, Sus scrofa; settings: 10 μM, 40 million sperm per mL, 1 hour
Protocol: Zn^2+ chelation was performed using TPEN (membrane permeable). 10 μM TPEN was incubated with 40 million sperm per mL for 1 hour. Stock TPEN: 1 mM in 1:100 EtOH:H2O.
as §1
IBFC data acquisition was performed following previous methodology^56. […]
Data were analyzed using IDEAS® analysis software from AMNIS EMD Millipore. […] Events in focus were further gated to analyze only a single spermatozoa by plotting H33342 fluorescence area by aspect ratio (FIG. 2A, middle panel). […] Such mask was created by taking a morphology mask of the brightfield (FIG. 2B, first column), subtracting a 4-pixel dilation of H33342 (FIG. 2B, second column), resulting in a mask to analyze fluorescence in the tail region only (FIG. 2B, third and fourth columns). […] This combined gating and masking strategy shown in FIG. 2C provided robust clean data, ready for signature analysis by plotting FZ3 intensity of this masked region, which is impossible with traditional flow cytometry. […]

[3] = 100 μM in IVC media, 4 hours 37° C., pre-sperm rich fraction, mean±s.e.m., 3 biological replicates, 10,000 cells

With `CC(C)C[C@@H](C=O)NC(=O)[C@H](CC(C)C)NC(=O)[C@H](CC(C)C)NC(=O)OCc1ccccc1` [MG132] (Cbz-Leu-Leu-Leu-aldehyde) as the compound, how does the “Signature 1 (portion of spermatozoa with zinc signature 1)” value [1, 3] read?
The value was 30.8% ± 13.1%^B.

And the “Signature 2 (portion of spermatozoa with zinc signature 2)” value [1, 3]?
Its value is 32.9% ± 19.5%.

What about the “Signature 3 (portion of spermatozoa with zinc signature 3)” value [1, 3] of the same compound?
Its value is 31.0% ± 4.9%^B.

What about the “Signature 4 (portion of spermatozoa with zinc signature 4)” value [1, 3] of the same compound?
The value was 5.4% ± 4.9%^AB.

What about the “Retention of zinc signature 1 during IVC as compared to IVC+vehicle” value ([1]; added to IVC conditions, pre-sperm rich fraction, P=0.0271 (signatures 1 & 2 combined P=0.0008)) of the same compound?
Its value is “significantly higher portion of spermatozoa retained signature 1”.

Which “FZ3 fluorescence / zinc signature after Zn chelation, compared to vehicle” value [2] does the source give for `c1ccc(CN(CCN(Cc2ccccn2)Cc2ccccn2)Cc2ccccn2)nc1` [TPEN, N,N,N′,N′-Tetrakis(2-pyridinylmethyl)-1,2-ethanediamine] here?
Its value is “removed a majority of FZ3 fluorescence to signature 3 and 4 states”.

And the “Fluo-4 calcium probe intensity compared to vehicle” value [2]?
Its value is “did not reduce Fluo-4 calcium probe intensity”.

`[Cl-].[Cl-].[Zn+2]` [ZnCl2, zinc chloride] was tested. Which “Zinc signature after IVC with exogenous zinc” value ([1]; 1 mM added to IVC medium) did it give?
The value was “retained signature 1”.
